Peptide text beside a SMILES is read from it. * marks the point of attachment. Dicyclohexylacetyl = O=C(C(C1CCCCC1)C1CCCCC1)*; Butanoyl(2,2-Me2) = CCC(C)(C)C(=O)*; Octanoyl(6-Me) = CCC(C)CCCCC(=O)*; Octanoyl = CCCCCCCC(=O)*; X1 = CCCCC(CC)C(=O)*
Tested on: C. neoformans ATCC 32045
Format: cell-based
Conditions: ATCC 32045, 72 h
Description: C. neoformans ATCC 32045 cultures were maintained on yeast medium (YM; Difco Laboratories, Detroit, Mich.) agar plates at 4° C. Prior to the assay, the cultures were grown on agar plates and incubated for 72 hrs at 26° C. Two colonies of these newly grown fungal cultures were then inoculated in 5 ml of 2×YM broth, vortexed, and diluted 10-fold in 2×YM broth, for an approximate final assay concentration of 1×105 to 5×10^5 CFU/ml. In 96-well tissue culture plates, fungal suspensions in 2×YM broth were added to the peptides dispensed at concentrations ranging from 1 mg/ml to 1 μg/ml derived from serial twofold dilutions in sterile water. The plates were then incubated for 72 hrs at 26° C. The relative percent growth of the fungi found for each test sample was determined by the optical density at 620 nm (OD620) by using a Titertek Multiskan Plus apparatus. […] The IC50 were calculated by using a sigmoidal curve-fitting software program (Graphpad Prism; ISI Software, San Diego, Calif.).

Row | Structure (SMILES) | average IC50 | average MIC
1 | CC[C@H](C)[C@H](NC(=O)[C@H](CCCNC(=N)N)NC(=O)[C@@H](NC(=O)[C@H](CCCNC(=N)N)NC(=O)[C@H](Cc1c[nH]c2ccccc12)NC(=O)[C@@H]1CCCN1)[C@@H](C)CC)C(=O)N[C@@H](CCCNC(=N)N)C(=O)N[C@@H](CCCNC(=N)N)C(N)=O [VS1-34, PWRIRIRR-NH2] (H-PWRIRIRR-NH2; N-terminus assumed) | 2 µg/mL | 8 µg/mL
2 | CC[C@H](C)[C@H](NC(=O)[C@H](CCCNC(=N)N)NC(=O)[C@H](CCCNC(=N)N)NC(=O)[C@H](Cc1c[nH]c2ccccc12)NC(=O)[C@@H]1CCCN1)C(=O)N[C@@H](CCCNC(=N)N)C(=O)N[C@@H](CCCNC(=N)N)C(N)=O [VS1-35, PWRRIRR-NH2] (H-PWRRIRR-NH2; N-terminus assumed) | 12 µg/mL | 32 µg/mL
3 | CC[C@H](C)[C@H](NC(=O)[C@H](CCCCN)NC(=O)[C@H](CCCNC(=N)N)NC(=O)[C@H](CCCNC(=N)N)NC(=O)[C@H](Cc1c[nH]c2ccccc12)NC(=O)[C@@H]1CCCN1)C(=O)N[C@@H](CCCNC(=N)N)C(=O)N[C@@H](CCCNC(=N)N)C(N)=O [VS1-36, PWRRKIRR-NH2] (H-PWRRKIRR-NH2; N-terminus assumed) | 11 µg/mL | 62 µg/mL
4 | CC[C@H](C)[C@H](NC(=O)[C@H](CCCNC(=N)N)NC(=O)[C@@H](NC(=O)[C@H](CCCNC(=N)N)NC(=O)[C@H](CCCNC(=N)N)NC(=O)[C@H](CCCNC(=N)N)NC(=O)[C@H](Cc1c[nH]c2ccccc12)NC(=O)[C@H](Cc1ccccc1)NC(=O)[C@@H]1CCCN1)[C@@H](C)CC)C(=O)N[C@@H](CCCNC(=N)N)C(=O)N[C@@H](CCCNC(=N)N)C(N)=O [VS1-37, PFWRRRIRIRR-NH2] (H-PFWRRRIRIRR-NH2; N-terminus assumed) | 9 µg/mL | 32 µg/mL
5 | N=C(N)NCCC[C@H](NC(=O)[C@H](CCCNC(=N)N)NC(=O)[C@H](Cc1c[nH]c2ccccc12)NC(=O)[C@H](Cc1ccccc1)NC(=O)[C@H](Cc1c[nH]c2ccccc12)NC(=O)[C@H](CCCNC(=N)N)NC(=O)[C@@H](N)CCCNC(=N)N)C(=O)O [VS1-39, RRWFWRR-OH] (H-RRWFWRR-OH; N-terminus assumed) | 6 µg/mL | 32 µg/mL
6 | CCCCCCCC(=O)N[C@@H](Cc1ccccc1)C(=O)N[C@@H](Cc1c[nH]c2ccccc12)C(=O)N[C@@H](CCC(N)=O)C(=O)N[C@@H](CCCNC(=N)N)C(=O)N[C@@H](CC(N)=O)C(=O)N[C@H](C(=O)N[C@@H](CCCNC(=N)N)C(=O)N[C@@H](CCCCN)C(=O)N[C@@H](Cc1c[nH]c2ccccc12)C(=O)N[C@@H](CCCNC(=N)N)C(N)=O)[C@@H](C)CC [VS1-40, octanoyl FWQRNIRKWR-NH2] (Octanoyl-FWQRNIRKWR-NH2) | 2 µg/mL | 8 µg/mL
7 | CCCCC(CC)C(=O)N[C@@H](Cc1ccccc1)C(=O)N[C@@H](Cc1c[nH]c2ccccc12)C(=O)N[C@@H](CCC(N)=O)C(=O)N[C@@H](CCCNC(=N)N)C(=O)N[C@@H](CC(N)=O)C(=O)N[C@H](C(=O)N[C@@H](CCCNC(=N)N)C(=O)N[C@@H](CCCCN)C(=O)N[C@@H](Cc1c[nH]c2ccccc12)C(=O)N[C@@H](CCCNC(=N)N)C(N)=O)[C@@H](C)CC (some centres unmarked) [VS1-41, 2-ethylhexanoyl FWQRNIRKWR-NH2] (X1-FWQRNIRKWR-NH2) | 4 µg/mL | 8 µg/mL
8 | CCC(C)CCCCC(=O)N[C@@H](Cc1ccccc1)C(=O)N[C@@H](Cc1c[nH]c2ccccc12)C(=O)N[C@@H](CCC(N)=O)C(=O)N[C@@H](CCCNC(=N)N)C(=O)N[C@@H](CC(N)=O)C(=O)N[C@H](C(=O)N[C@@H](CCCNC(=N)N)C(=O)N[C@@H](CCCCN)C(=O)N[C@@H](Cc1c[nH]c2ccccc12)C(=O)N[C@@H](CCCNC(=N)N)C(N)=O)[C@@H](C)CC (some centres unmarked) [VS1-43, 6-methyloctanoyl FWQRNIRKWR-NH2] ({Octanoyl(6-Me)}-FWQRNIRKWR-NH2) | 6 µg/mL | 16 µg/mL
9 | CC[C@H](C)[C@H](NC(=O)[C@H](CC(N)=O)NC(=O)[C@H](CCCNC(=N)N)NC(=O)[C@H](CCC(N)=O)NC(=O)[C@H](Cc1c[nH]c2ccccc12)NC(=O)[C@H](Cc1ccccc1)NC(=O)C(C1CCCCC1)C1CCCCC1)C(=O)N[C@@H](CCCNC(=N)N)C(=O)N[C@@H](CCCCN)C(=O)N[C@@H](Cc1c[nH]c2ccccc12)C(=O)N[C@@H](CCCNC(=N)N)C(N)=O [VS1-44, dicyclohexylacetyl FWQRNIRKWR-NH2] (Dicyclohexylacetyl-FWQRNIRKWR-NH2) | 4 µg/mL | 16 µg/mL
10 | CCCCCCCC(=O)N[C@@H](CCCNC(=N)N)C(=O)N[C@@H](Cc1c[nH]c2ccccc12)C(=O)N[C@@H](CCCCN)C(=O)N[C@@H](CCCNC(=N)N)C(=O)N[C@H](C(=O)N[C@@H](CC(N)=O)C(=O)N[C@@H](CCCNC(=N)N)C(=O)N[C@@H](CCC(N)=O)C(=O)N[C@@H](Cc1c[nH]c2ccccc12)C(=O)N[C@@H](Cc1ccccc1)C(N)=O)[C@@H](C)CC [VS1-45, octanoyl RWKRINRQWF-NH2] (Octanoyl-RWKRINRQWF-NH2) | 2 µg/mL | 4 µg/mL
11 | CCCCC(CC)C(=O)N[C@@H](CCCNC(=N)N)C(=O)N[C@@H](Cc1c[nH]c2ccccc12)C(=O)N[C@@H](CCCCN)C(=O)N[C@@H](CCCNC(=N)N)C(=O)N[C@H](C(=O)N[C@@H](CC(N)=O)C(=O)N[C@@H](CCCNC(=N)N)C(=O)N[C@@H](CCC(N)=O)C(=O)N[C@@H](Cc1c[nH]c2ccccc12)C(=O)N[C@@H](Cc1ccccc1)C(N)=O)[C@@H](C)CC (some centres unmarked) [VS1-46, 2-ethylhexanoyl RWKRINRQWF-NH2] (X1-RWKRINRQWF-NH2) | 4 µg/mL | 8 µg/mL
12 | CC[C@H](C)[C@H](NC(=O)[C@H](CCCNC(=N)N)NC(=O)[C@H](CCCCN)NC(=O)[C@H](Cc1c[nH]c2ccccc12)NC(=O)[C@H](CCCNC(=N)N)NC(=O)C(C)(C)CC)C(=O)N[C@@H](CC(N)=O)C(=O)N[C@@H](CCCNC(=N)N)C(=O)N[C@@H](CCC(N)=O)C(=O)N[C@@H](Cc1c[nH]c2ccccc12)C(=O)N[C@@H](Cc1ccccc1)C(N)=O [VS1-47, 2,2-dimethylbutanoyl RWKRINRQWF-NH2] ({Butanoyl(2,2-Me2)}-RWKRINRQWF-NH2) | 8 µg/mL | 16 µg/mL
13 | CCC(C)CCCCC(=O)N[C@@H](CCCNC(=N)N)C(=O)N[C@@H](Cc1c[nH]c2ccccc12)C(=O)N[C@@H](CCCCN)C(=O)N[C@@H](CCCNC(=N)N)C(=O)N[C@H](C(=O)N[C@@H](CC(N)=O)C(=O)N[C@@H](CCCNC(=N)N)C(=O)N[C@@H](CCC(N)=O)C(=O)N[C@@H](Cc1c[nH]c2ccccc12)C(=O)N[C@@H](Cc1ccccc1)C(N)=O)[C@@H](C)CC (some centres unmarked) [VS1-48, 6-methyloctanoyl RWKRINRQWF-NH2] ({Octanoyl(6-Me)}-RWKRINRQWF-NH2) | 2 µg/mL | 8 µg/mL

Reference: patent US7960339B2, “Antimicrobial peptides” (Österreichische Akademie der Wissenschaften, priority 2006, dated 2011)
